# The source made the active and inactive calls. The calls are words filed in the database; no cut-off is given here.
# Legend:
# [1] = Anticancer activity against human DU145 cells measured after 48 hrs by SRB assay; type: functional, cell-based; conditions: DU-145, 48 h
# [2] = Anticancer activity against human DLD1 cells measured after 48 hrs by SRB assay; type: functional, cell-based; conditions: DLD-1, 48 h
# [3] = Anticancer activity against human ER-positive MCF7 cells measured after 48 hrs by SRB assay; type: functional, cell-based; conditions: MCF7, 48 h
# [4] = Cytotoxicity against human THP1 cells by MTT assay; type: toxicity, cell-based, THP-1
# [5] = Anticancer activity against human FADU cells measured after 48 hrs by SRB assay; type: functional, cell-based
# [6] = Anticancer activity against human A549 cells measured after 48 hrs by SRB assay; type: functional, cell-based; conditions: A549, 48 h
# [7] = Inhibition of tubulin depolymerization (unknown origin) measured up to 60 mins; parameters: species or system Homo sapiens
# [8] = Cell cycle arrest in human ER-positive MCF7 cells assessed as accumulation at sub-G0 phase at 7.2 and 14.93 uM by propidium iodide staining based flow cytometry relative to vehicle control; type: functional; conditions: TDE = time-dependent effect
# MCF7 = assay: Induction of apoptosis in human ER-positive MCF7 cells assessed as PARP cleavage at 2.5 to 10 uM by Western blot analysis; type: functional, cell-based; conditions: TDE = time-dependent effect
# [9] = Cell cycle arrest in human ER-positive MCF7 cells assessed as accumulation at G2M phase at 7.2 and 14.93 uM by propidium iodide staining based flow cytometry relative to vehicle control; type: functional; conditions: TDE = time-dependent effect
# [10] = Cell cycle arrest in human ER-positive MCF7 cells assessed as decrease in S-phase cell population at 7.2 and 14.93 uM after 24 hrs by propidium iodide staining based flow cytometry relative to vehicle control; type: functional
Compound,IC50 [1] [µM],IC50 [2] [µM],IC50 [3] [µM],CC50 [4] [µM],IC50 [5] [µM],IC50 [6] [µM],EC50 [7] [µM],Activity [8],Activity (MCF7),Activity [9],Activity [10]
CCN(CC)CCOc1cc(OC)c(OC)c2oc(-c3ccc(OC)cc3)c(O)c(=O)c12,11.3,7.81,25.1,200,12.8,13.8,–,–,–,–,–
COc1ccc(-c2oc3c(OC)c(OC)cc(OCCN4CCCCC4)c3c(=O)c2O)cc1,6.55,4.56,11.9,100,9.96,10.3,–,–,–,–,–
CCCCN(C)C(=O)CCCCOc1cc(OC)c(OC)c2oc(-c3ccc(OC)cc3)c(O)c(=O)c12,10.8,17.4,22.3,200,22,16.7,–,–,–,–,–
COc1ccc(-c2oc3c(OC)c(OC)cc(OCCCC(=O)N4CCN(C)CC4)c3c(=O)c2O)cc1,> 40,> 40,> 40,–,> 40,> 40,–,–,–,–,–
CCCCN(C)C(=O)CCCOc1cc(OC)c(OC)c2oc(-c3ccc(OC)cc3)c(O)c(=O)c12,> 40,> 40,> 40,–,> 40,> 40,3.4,–,–,–,–
COc1ccc(-c2oc3c(OC)c(OC)cc(OCCCCC(=O)NCCc4ccccn4)c3c(=O)c2O)cc1,> 40,> 40,> 40,–,> 40,> 40,–,–,–,–,–
COc1ccc(-c2oc3c(OC)c(OC)cc(OCCCCC(=O)N4CCN(C)CC4)c3c(=O)c2O)cc1,> 40,> 40,> 40,–,> 40,> 40,–,–,–,–,–
COc1ccc(-c2oc3c(OC)c(OC)cc(OCCCCCC(=O)N4CCN(C)CC4)c3c(=O)c2O)cc1,13.2,13.7,14.1,50,15.8,14.8,5.25,–,–,–,–
COc1ccc(-c2oc3c(OC)c(OC)cc(OCCN4CCCC4)c3c(=O)c2O)cc1,7.07,17.4,14.9,100,9.79,11.1,–,–,–,–,–
COc1ccc(-c2oc3c(OC)c(OC)cc(OCCCCCC(=O)NCCc4ccccn4)c3c(=O)c2O)cc1,> 40,> 40,> 40,–,> 40,> 40,–,–,–,–,–
COc1ccc(-c2oc3c(OC)c(OC)cc(OCCCC(=O)NCc4ccccn4)c3c(=O)c2O)cc1,> 40,> 40,> 40,–,> 40,> 40,–,–,–,–,–
COc1ccc(-c2oc3c(OC)c(OC)cc(OCCN(C)C)c3c(=O)c2O)cc1,6.03,4.44,12.9,200,10.9,7.17,–,–,–,–,–
COc1ccc(-c2oc3c(OC)c(OC)cc(OC(C)CN(C)C)c3c(=O)c2O)cc1 (stereo unspecified),4.38,2.56,7.2,100,5.41,6.12,25.1,Tde,Tde,Tde,Active
CC/C(=C(\c1ccccc1)c1ccc(OCCN(C)C)cc1)c1ccccc1 [TAMOXIFEN],18.1,11.1,18.2,–,5.39,17.3,–,–,–,–,–
COc1ccc(-c2oc3c(OC)c(OC)cc(OCCCC(=O)NCCc4ccccn4)c3c(=O)c2O)cc1,> 40,> 40,> 40,–,> 40,> 40,–,–,–,–,–
COc1ccc(-c2oc3c(OC)c(OC)cc(OCCCCC(=O)NCc4ccccn4)c3c(=O)c2O)cc1,> 40,> 40,> 40,–,> 40,> 40,–,–,–,–,–
COc1ccc(-c2oc3c(OC)c(OC)cc(OCCCCCC(=O)NCc4ccccn4)c3c(=O)c2O)cc1,> 40,> 40,> 40,–,> 40,> 40,–,–,–,–,–
CC(=O)O[C@H]1C(=O)[C@@]2(C)[C@H]([C@H](OC(=O)c3ccccc3)[C@]3(O)C[C@H](OC(=O)[C@H](O)[C@@H](NC(=O)c4ccccc4)c4ccccc4)C(C)=C1C3(C)C)[C@]1(OC(C)=O)CO[C@@H]1C[C@@H]2O [PACLITAXEL],–,–,–,–,–,–,0.97,–,–,–,–
CCCCCN(C)C(=O)CCCCCOc1cc(OC)c(OC)c2oc(-c3ccc(OC)cc3)c(O)c(=O)c12,22.5,19.4,34.9,200,> 40,17.2,–,–,–,–,–
